Source: PubChem BioAssay (NCI)
Values joined by “and” are separate entries in the source; they are usually repeats but may differ in a detail not shown here. Identical values can stand only once.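 Each compound was tested at five concentrations against cells in 96-well plates for 48 hours. Abbreviation: GI50, concentration required for 50% inhibition of growth. TGI marks complete inhibition of growth.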

Legend:
Test in all cases: NCI-60 cell line screen, 48 h
[1] = test system: A549 NSCLC
[2] = test system: CAKI-1 renal
[3] = test system: DU-145 prostate
[4] = test system: HOP-92 NSCLC
[5] = test system: M14 melanoma
[6] = test system: MOLT-4 leukemia
[7] = test system: OVCAR-5 ovarian
[8] = test system: OVCAR-8 ovarian
[9] = test system: SNB-75 CNS
[10] = test system: UACC-62 melanoma

SMILES	GI50 [1]	TGI [1]	GI50 [2]	TGI [2]	GI50 [3]	TGI [3]	GI50 [4]	TGI [4]	GI50 [5]	TGI [5]	GI50 [6]	TGI [6]	GI50 [7]	TGI [7]	GI50 [8]	TGI [8]	GI50 [9]	TGI [9]	GI50 [10]	TGI [10] [µM]
CC(C)[C@@]12C[C@@H](OC(=O)COC(=O)c3ccccc3)[C@@](C)(O1)[C@@H]1CC[C@@H](C)[C@H]1[C@@H]2OC(=O)/C=C/c1ccccc1	> 100 µM	> 100 µM	0.0812 µM	2.87 µM	> 100 µM	> 100 µM	33.5 µM	> 100 µM	> 100 µM	> 100 µM	> 100 µM	> 100 µM	> 100 µM	> 100 µM	0.134 µM	> 100 µM	> 100 µM	> 100 µM	> 100 µM	> 100
CS(=O)(=O)N1CCC(Nc2ncc(C(=O)c3c(F)cccc3F)c(N)n2)CC1	6.14 µM	> 25 µM	8.76 µM	> 25 µM	9.76 µM	> 25 µM	1.96 µM	> 20.8 µM	19.4 µM	> 25 µM	11.2 µM	> 25 µM	9.78 µM	> 25 µM	9.7 µM	> 25 µM	> 10.9 µM	24.3 µM	12.6 µM	> 25
COc1ccc(C2=C(c3ccccc3)C(=O)N3CCCC3C2)cc1 (stereo unspecified)	0.195 µM	> 100 µM	8.05 µM	> 100 µM	4.13 µM	> 100 µM	> 100 µM	> 100 µM	9.54 µM	> 100 µM	–	> 100 µM	> 100 µM	> 100 µM	9.42 µM	> 100 µM	18.9 µM	> 100 µM	1.92 µM	> 100
Nc1c(C(=O)Nc2cccc(Cl)c2)sc2nc3c(cc12)C(O)CCC3 (stereo unspecified)	0.465 µM	17.4 µM	0.432 µM	30.4 µM	0.388 µM	16.3 µM	0.824 µM	38.2 µM	0.367 µM	> 49.7 µM	0.488 µM	> 57.7 µM	2.89 µM	33.9 µM	0.714 µM	22.9 µM	0.373 µM	21.6 µM	0.463 µM	58.8
COc1ccc(-c2nc3sccn3c2-c2ccnc(NCCNS(=O)(=O)c3ccc(C(F)(F)F)cc3)n2)cc1	3.98 µM	> 100 µM	2.64 µM	> 100 µM	1.53 µM	> 100 µM	0.153 µM	2.51 µM	0.69 µM	3.25 µM	0.503 µM	> 100 µM	9.38 µM	> 100 µM	2.85 µM	> 100 µM	1.98 µM	10.7 µM	0.485 µM	3.4
COc1ccccc1CNCCCN1C(=O)c2ccc3c4c(ccc(c24)C1=O)C(=O)N(CCCNCCCCNCCCN)C3=O	0.581 µM	2.72 µM	2.6 µM	10.4 µM	0.682 µM	2.03 µM	0.67 µM	5.23 µM	0.645 µM	2.08 µM	0.57 µM	8.31 µM	2.03 µM	11 µM	0.285 µM	2.19 µM	0.609 µM	1.86 µM	0.362 µM	1.69
CC[C@]12C=CCN3CC[C@]4(C(=C(C(=O)OC)C1)Nc1cc5c(cc14)[C@@H]1[C@H](O5)[C@@H](O)[C@@]4(CC)CC(C(=O)OC)=C5Nc6ccccc6[C@@]56CCN1[C@@H]46)[C@@H]32	1.2 µM and 0.875 µM	12.7 µM and > 100 µM	0.0819 µM and 0.268 µM	8.09 µM and 37.7 µM	1.59 µM and 1.77 µM	25 µM and 10.7 µM	0.114 µM and 0.138 µM	12.4 µM and 9.48 µM	0.517 µM and 0.385 µM	25 µM and > 100 µM	0.432 µM and 0.338 µM	25 µM and > 100 µM	0.749 µM and 0.826 µM	25 µM and 21.3 µM	0.648 µM and 0.449 µM	25 µM and > 100 µM	0.0335 µM and 0.161 µM	25 µM and 18.7 µM	0.137 µM and 0.158 µM	–
CC(C)(C)N1CC1CNC(=O)C(=O)NCC1CN1C(C)(C)C (stereo unspecified)	–	21.1 µM	–	> 96.1 µM	–	> 26.9 µM	–	33.3 µM	–	16.6 µM	–	31.3 µM	–	7.56 µM	–	14.8 µM	–	13.2 µM	–	6.82
Nc1nc(N)c2cc(S(=O)(=O)c3ccc4ccccc4c3)ccc2n1	–	> 100 µM	–	> 100 µM	7.78 µM	> 100 µM	–	34.8 µM	2.23 µM	> 100 µM	> 100 µM	> 100 µM	–	> 100 µM	–	49.6 µM	–	12.3 µM	–	> 100
CCN1C(=O)/C(=c2\sc3n(c2=O)C2C(NN=3)N(CC)C(=O)N2CC)c2ccccc21 (stereo unspecified)	0.795 µM	> 100 µM	0.465 µM	32.2 µM	0.582 µM	29.2 µM	1.13 µM	25.6 µM	0.347 µM	21.7 µM	0.82 µM	> 100 µM	2.02 µM	> 100 µM	0.665 µM	> 100 µM	0.189 µM	0.856 µM	0.426 µM	30
NS(=O)(=O)c1ccc(N=Nc2c(O)[nH]c3ccc(C(=O)NCCCn4ccnc4)cc23)cc1	> 25 µM	> 25 µM	> 25 µM	> 25 µM	> 25 µM	> 25 µM	> 25 µM	> 25 µM	> 25 µM	> 25 µM	> 25 µM	> 25 µM	> 25 µM	> 25 µM	> 25 µM	> 25 µM	> 25 µM	> 25 µM	> 25 µM	> 25
Cc1cc(O)ccc1C1(c2ccc(O)cc2C)OC(=O)c2ccccc21	20.8 µM	37 µM	16 µM	30.1 µM	18 µM	31.9 µM	15.4 µM	29.7 µM	18.3 µM	37.1 µM	23.8 µM	58.9 µM	16 µM	32.9 µM	23.3 µM	46.5 µM	15.1 µM	29.5 µM	18 µM	35.9
Cc1nc2ccc(-n3ncc(C(=O)c4cc5ccccc5[nH]4)c3N)cc2[nH]1	8.46 µM	> 100 µM	7.16 µM	> 100 µM	13.1 µM	> 100 µM	21.9 µM	98.9 µM	12.2 µM	63.4 µM	5.99 µM	56.1 µM	16 µM	> 100 µM	7.08 µM	> 100 µM	0.945 µM	> 100 µM	4.24 µM	24.9
Cc1ccc(C2=NN(c3ccc(S(=O)(=O)NC(=O)NCc4ccccc4)cc3)C(c3ccc(N(C)C)cc3)C2)c(C)c1 (stereo unspecified)	3.46 µM	16.4 µM	3.45 µM	87.1 µM	4.6 µM	16.6 µM	2.64 µM	8.58 µM	3.57 µM	23.4 µM	3.65 µM	73.8 µM	5.4 µM	29.3 µM	3.81 µM	> 100 µM	2.44 µM	> 100 µM	2.5 µM	6.8
Cc1[nH]c(C(=O)Nc2cccc(OC3CCNCC3)c2)c(Cl)c1Cl	2.04 µM	4.17 µM	1.82 µM	3.39 µM	1.89 µM	3.52 µM	1.32 µM	4 µM	1.8 µM	3.52 µM	1.94 µM	4.12 µM	1.63 µM	3.11 µM	2.05 µM	4.31 µM	1.13 µM	2.65 µM	1.81 µM	3.45
CSC1=CC(=O)c2ccccc2C1=O	24.2 µM	64.8 µM	1.59 µM	3.11 µM	10.8 µM	23.6 µM	0.811 µM	2.19 µM	2.03 µM	3.88 µM	1.64 µM	4.86 µM	17.4 µM	34.2 µM	3.58 µM	15 µM	11.6 µM	24.2 µM	4.06 µM	17.1
COc1cc(/C=C2\CC3C4CCC5=CC(=O)CC[C@]5(C)C4CC[C@]3(C)C2=O)ccc1OCCN1CCCC1 (stereo partly specified)	4.45 µM	> 100 µM	2.89 µM	10.5 µM	3.76 µM	16.8 µM	1.41 µM	3.87 µM	1.67 µM	3.39 µM	0.689 µM	1.84 µM	2.64 µM	8.26 µM	3.4 µM	13.5 µM	3.47 µM	11.1 µM	2.06 µM	5.02
COc1cc(/C=C2\CCC/C(=C\c3cc(CN4CCCC4)c(O)c(OC)c3)C2=O)cc(CN2CCCC2)c1O	3.5 µM	12.8 µM	5.51 µM	17.7 µM	4.63 µM	15.4 µM	2.11 µM	11.8 µM	2.9 µM	8.63 µM	2.43 µM	8.98 µM	4.18 µM	13.4 µM	3.27 µM	> 100 µM	5.02 µM	47.9 µM	3.45 µM	12.9
Cn1cc(-c2csc(-c3ccccc3)n2)c2cccnc21	16.9 µM	38 µM	7.1 µM	31.7 µM	15 µM	29.3 µM	1.81 µM	15.4 µM	13.9 µM	27.8 µM	10.3 µM	29 µM	14 µM	32.7 µM	20.3 µM	52.4 µM	23.5 µM	97.6 µM	12.3 µM	25.5
O=C(CCN1CCCCC1)c1csc2ccccc12	–	> 100 µM	–	> 100 µM	–	> 100 µM	–	> 100 µM	–	> 100 µM	–	> 100 µM	–	> 100 µM	–	> 100 µM	–	> 100 µM	–	> 100
